The source of these data is ChEMBL document CHEMBL1147869, “Computational approach to the basicity of a series of alpha1-adrenoceptor ligands in aqueous solution” (Bioorg Med Chem, 2007).

The nature of this data set: Dissociation constant, pKa of the compound. It is filed as physicochemical.
What is called pKa is the negative logarithm of the acid dissociation constant. High values mean a group that holds its proton tightly, low ones a group that gives up its proton readily. `COc1cc2nc(N3CCN(C(=O)C4COc5ccccc5O4)CC3)nc(N)c2cc1OC` (centres undefined) [DOXAZOSIN] showed a pKa of 6.9.

As for `NC[C@H](O)c1ccc(O)c(O)c1` [NOREPINEPHRINE], the pKa is 8.58.

`O=C(c1ccc(NC2=NCCN2)cc1)c1ccc(NC2=NCCN2)cc1` came in with a pKa of 8.6.

For the compound `c1cc(Nc2ccc(NC3=NCCN3)cc2)ccc1NC1=NCCN1`, the pKa came to 9.9.

`c1cc(NC2=NCCN2)ccc1Cc1ccc(NC2=NCCN2)cc1` yielded a pKa of 9.8.

For the compound `N=C(N)Nc1ccc(C(=O)c2ccc(NC(=N)N)cc2)cc1`, the pKa came out at 9.4.

In the case of `N=C(N)Nc1ccc(Nc2ccc(NC(=N)N)cc2)cc1`, the pKa worked out at 10.8.

In turn, `CNC[C@H](O)c1ccc(O)c(O)c1` [EPINEPHRINE] registered a pKa of 8.59.

The compound `N=C(N)Nc1ccc(Cc2ccc(NC(=N)N)cc2)cc1` gave a pKa of 10.5.
